Here are results for 1 molecule from patent US4459232A, “Imidazo[1,2-c][1,3]benzodiazepines” (Ciba-Geigy Corporation, priority 1982, dated 1984).

Series [1] has as its system monkeys. As to the kind of experiment: conditioned avoidance behavior (lever press to avoid foot shock) in monkeys. Conditions: Primates, oral, read-out: oral dose that disrupts avoidance behavior (decreases avoidance responses). In kind it is in vivo, squirrel monkey. The procedure: (§1) Each lever press postpones the shock for 30 seconds. Whenever the animal fails to press the lever once within said period, brief (0.5 sec.) shocks are delivered at 15 second intervals until the animal again presses the lever. Under control conditions the animals press the lever at a moderately steady rate and seldom receive more than five or six shocks during a 25-minute (rats) and up to 4-hour experimental session. Said compounds evaluated for neuroleptic activity, are administered to the animals 30, 90, 210 minutes prior to the experimental session and block the learned conditioned avoidance behavior, manifested by a decrease in avoidance responding with a marked increase in shocks taken by the animal. Both the avoidance responses and failures (shocks received) are recorded separately for evaluation.
(§2) Indicative of the antipsychotic utility of the compounds of this invention, e.g., the compound of example 1, namely 5-(4-methyl-1-piperazinyl)-11H-imidazo[1,2-c][1,3]benzodiazepine disrupts avoidance behavior, e.g. decreases avoidance responses in rats and monkeys at an oral dose of 30 mg/kg or lower.

The subject of series [2] is monkey. As to the kind of experiment: extrapyramidal side effects (dyskinesias, dystonias) in the monkey. In kind it is in vivo.
Series [3] concerns the target histamine activation of adenylate cyclase. Put plainly: inhibition of histamine activation of adenylate cyclase in vesicles of guinea pig cerebral cortex. Type of series: biochemical. Conditions: 50 micromolar histamine. The procedure:
Finally, said antihistaminic properties can be shown in vitro, e.g., according to Chasin et al., J. Neurochem. 22, 1031 (1974). Vesicles from a cell free preparation of guinea pig cerebral cortex are preincubated with ^3 H-adenine to form endogenous ^3 H-adenosine triphosphate. The vesicles are then incubated with 50 micromolar histamine to activate ^3 H-cyclic adenosine monophosphate synthesis in the absence or presence of the test compound at a concentration between 0.01 and 100 micromolar. When said compound is active, it inhibits the histamine activation of adenylate cyclase. The IC50 represents the concentration at which histamine activation is inhibited by 50%.

Series [4] relates to α-adrenergic. As to the kind of experiment: α-adrenergic blocking activity in vitro. In kind it is biochemical.
Series [5] relates to rats. As to the kind of experiment: conditioned avoidance behavior (lever press to avoid foot shock) in rats. Type of series: in vivo. The settings on record: Rattus norvegicus, oral, read-out: oral dose that disrupts avoidance behavior (decreases avoidance responses). As to the method:
as §1, §2

Structures are written as SMILES.

Turning to `CN1CCN(C2=Nc3ccccc3Cc3nccn32)CC1` [example 1, 5-(4-methyl-1-piperazinyl)-11H-imidazo[1,2-c][1,3]benzodiazepine], the minimal effective dose in series [1] and in series [5] was ≤ 30 mg/kg in each case. For the same molecule, the “extrapyramidal side effects, e.g. dyskinesias and dystonias” value in series [2] was “essentially free of extrapyramidal side effects”. Also, the 50% inhibitory concentration (IC50) in series [3] was ~1 µM. Further, the α-adrenergic blocking activity result in series [4] was “only minimal α-adrenergic blocking activity”.

For orientation: IC50 means the concentration that gives 50% inhibition.
